From US4443436A, “C-20-Modified macrolide derivatives of the macrolide antibiotics tylosin, desmycosin, macrocin, and lactenocin” (Eli Lilly and Company, priority 1982, dated 1984) come the findings set out here.

Molecules are shown by their SMILES. Values after ≈ are worked out from the molar mass of the structure shown. Where two headings read alike, the source gives them in different places. Bounds are passed on as bounds.

Common to all, as to format: cell-based
For assay [1], the system named is Staphylococcus epidermidis EPI1. Description: MIC, standard agar-dilution assay, Staphylococcus epidermidis EPI1.
A further assay relates to Streptococcus bovis 80. Description: MIC, broth-dilution microtiter test, Streptococcus bovis 80. To be noted: Streptococcus equinus; Streptococcus bovis 80; broth-dilution microtiter; read-out: MIC. The source says: (§1) The MIC's in Table X were obtained using conventional broth-dilution microtiter tests.
The next assay has as its system Staphylococcus aureus. Put plainly: MIC, broth-dilution microtiter test, Staphylococcus aureus.
Description: as §1

Another assay has as its system Mycoplasma synoviae. Put plainly: MIC, broth-dilution microtiter test, Mycoplasma synoviae. To be noted: Mycoplasmopsis synoviae; Mycoplasma synoviae; broth-dilution microtiter; read-out: MIC.
Description: as §1

In assay [2] the test system is Pasteurella multocida 60A. Description: MIC, broth-dilution microtiter test, Pasteurella multocida 60A. Conditions: Pasteurella multocida 60A; avian isolate; broth-dilution microtiter; read-out: MIC.
Description: as §1

The subject of the next assay is Mycoplasma hyorhinis. Description: MIC, broth-dilution microtiter test, Mycoplasma hyorhinis.
Description: as §1

Another assay relates to Mycoplasma hyopneumoniae. Description: MIC, broth-dilution microtiter test, Mycoplasma hyopneumoniae. To be noted: Mesomycoplasma hyopneumoniae; Mycoplasma hyopneumoniae; broth-dilution microtiter; read-out: MIC.
Description: as §1

Another assay concerns Streptococcus Group 9960. Put plainly: MIC, standard agar-dilution assay, Streptococcus Group 9960. Conditions: GROUP9960; Streptococcus Group 9960; agar dilution; read-out: MIC.
Assay [3] concerns Streptococcus pneumoniae Park I. Put plainly: microbe, parasite or virus in culture. Conditions: Streptococcus pneumoniae Park I; agar dilution; read-out: MIC.
Assay [4] concerns Streptococcus pyogenes C203. Description: MIC, standard agar-dilution assay, Streptococcus pyogenes C203.
Assay [5] deals with Pasteurella multocida 17E. Description: MIC, broth-dilution microtiter test, Pasteurella multocida 17E. Conditions: Pasteurella multocida 17E; bovine isolate; broth-dilution microtiter; read-out: MIC.
Description: as §1

Assay [6] has as its system Staphylococcus epidermidis EPI2. Description: MIC, standard agar-dilution assay, Staphylococcus epidermidis EPI2. Conditions: Staphylococcus epidermidis, EPI2.
The test system of assay [7] is Haemophilus influenzae R252. Description: MIC, standard agar-dilution assay, Haemophilus influenzae R252.
The test system of another assay is Mycoplasma gallisepticum. Description: MIC, broth-dilution microtiter test, Mycoplasma gallisepticum. Conditions: Mycoplasmoides gallisepticum; Mycoplasma gallisepticum; broth-dilution microtiter; read-out: MIC.
Description: as §1

Assay [8] has as its system Staphylococcus aureus V41. Put plainly: MIC, standard agar-dilution assay, Staphylococcus aureus V41.
In assay [9] the test system is Haemophilus influenzae Holt. Description: MIC, standard agar-dilution assay, Haemophilus influenzae Holt.
In assay [10] the test system is Staphylococcus aureus X400. Put plainly: MIC, standard agar-dilution assay, Staphylococcus aureus X400.
For assay [11], the system named is Staphylococcus aureus X1.1. Put plainly: MIC, standard agar-dilution assay, Staphylococcus aureus X1.1.
In assay [12] the test system is Streptococcus Group D X66. Put plainly: MIC, standard agar-dilution assay, Streptococcus Group D X66. Conditions: Streptococcus Group D X66; agar dilution; read-out: MIC. In general terms: Agar dilution tests growth on a series of plates holding different concentrations.
Assay [13] has as its system Staphylococcus aureus S13E. Put plainly: MIC, standard agar-dilution assay, Staphylococcus aureus S13E. To be noted: Staphylococcus aureus, S13E.
In assay [14] the test system is Pasteurella hemolytica 22C. Description: MIC, broth-dilution microtiter test, Pasteurella hemolytica 22C. To be noted: Pasteurella hemolytica 22C; broth-dilution microtiter; read-out: MIC.
Description: as §1

[15] abbreviates: Streptococcus pyogenes C203, agar dilution, read-out: MIC.
Where [16] appears, read: Staphylococcus aureus X400, methicillin-resistant strain, agar dilution, read-out: MIC.
Where [17] appears, read: Staphylococcus epidermidis, EPI1.
Setting [18] is: broth-dilution microtiter, read-out: MIC.
The mark [19] stands for this setting: Haemophilus influenzae R252, ampicillin-resistant strain, read-out: MIC.

In the case of `CCC1OC(=O)CC(O)C(C)C(OC2OC(C)C(OC3CC(C)(O)C(O)C(C)O3)C(N(C)C)C2O)C(CCOc2ccc(OC)cc2)CC(C)C(=O)C=CC(C)=CC1COC1OC(C)C(O)C(OC)C1OC` (stereo not drawn) [Compound 14, 20-DH-20-O-(p-Methoxyphenyl)tylosin], the MIC is 2 µg/mL (≈ 1.95 µM) in assay [1] (Staphylococcus epidermidis EPI1, agar dilution, read-out: MIC); 25 µg/mL (≈ 24.4 µM) with Streptococcus bovis 80; 1.56 µg/mL (≈ 1.52 µM) in the assay on Staphylococcus aureus; 6.25 µg/mL (≈ 6.1 µM) in the assay with Mycoplasma synoviae; over 50 µg/mL in assay [2]; over 50 µg/mL in the assay with Mycoplasma hyorhinis (Mycoplasma hyorhinis, broth-dilution microtiter, read-out: MIC). Besides, the MIC in the assay with Mycoplasma hyopneumoniae is over 25 µg/mL; with Streptococcus Group 9960 it was 128 µg/mL (≈ 125 µM); in assay [3], 8 µg/mL (≈ 7.81 µM); in assay [4] (setting [15]), 1 µg/mL (≈ 0.976 µM); in assay [5], over 50 µg/mL; in assay [6] it was 1 µg/mL (≈ 0.976 µM). In addition, the MIC in assay [7] (Haemophilus influenzae, R252) was over 128 µg/mL; with Mycoplasma gallisepticum it was 0.78 µg/mL (≈ 0.762 µM); in assay [8] (Staphylococcus aureus V41, penicillin-resistant strain, agar dilution, read-out: MIC) it was 0.5 µg/mL (≈ 0.488 µM); in [9] (Haemophilus influenzae), 128 µg/mL (≈ 125 µM); in assay [10] (setting [16]), 2 µg/mL (≈ 1.95 µM); in assay [11] (Staphylococcus aureus X1.1, agar dilution, read-out: MIC) it was 0.5 µg/mL (≈ 0.488 µM). For the same molecule, the values for the MIC in [12], in [13] and in assay [14] were 128 µg/mL (≈ 125 µM), 1 µg/mL (≈ 0.976 µM) and over 50 µg/mL, respectively.
As to `CCC1OC(=O)CC(O)C(C)C(OC2OC(C)C(OC3CC(C)(O)C(O)C(C)O3)C(N(C)C)C2O)C(CCOc2cc(Cl)cc(Cl)c2)CC(C)C(=O)C=CC(C)=CC1COC1OC(C)C(O)C(OC)C1OC` (stereo not drawn) [Compound 15, 20-DH-20-O-(3,5-Dichlorophenyl)tylosin], the MIC in [1] (setting [17]) was 2 µg/mL (≈ 1.88 µM); in the assay on Streptococcus bovis 80, 6.25 µg/mL (≈ 5.88 µM); with Staphylococcus aureus (setting [18]), 1.56 µg/mL (≈ 1.47 µM); in the assay on Mycoplasma synoviae, 3.12 µg/mL (≈ 2.93 µM); in [2], over 50 µg/mL; in the assay with Mycoplasma hyorhinis (Mycoplasma), 50 µg/mL (≈ 47 µM). The MIC with Mycoplasma hyopneumoniae is over 25 µg/mL; with Streptococcus Group 9960 it was over 128 µg/mL; in assay [3] it was 16 µg/mL (≈ 15.1 µM); in [4] (Streptococcus pyogenes, C203) it was 1 µg/mL (≈ 0.941 µM); in [5], over 50 µg/mL; in [6] it was 1 µg/mL (≈ 0.941 µM). The MIC is over 128 µg/mL in assay [7] (setting [19]); 1.56 µg/mL (≈ 1.47 µM) with Mycoplasma gallisepticum; 2 µg/mL (≈ 1.88 µM) in assay [8] (Staphylococcus aureus, V41); over 128 µg/mL in assay [9] (Haemophilus influenzae Holt, ampicillin-sensitive strain, read-out: MIC); 4 µg/mL (≈ 3.76 µM) in [10] (Staphylococcus aureus, X400); 1 µg/mL (≈ 0.941 µM) in assay [11] (Staphylococcus aureus, X1.1). Moreover, the MIC was over 128 µg/mL in [12], 1 µg/mL (≈ 0.941 µM) in [13] and over 50 µg/mL in assay [14].
`CCC1OC(=O)CC(O)C(C)C(OC2OC(C)C(OC3CC(C)(O)C(O)C(C)O3)C(N(C)C)C2O)C(CCOc2cccc(N(C)C)c2)CC(C)C(=O)C=CC(C)=CC1COC1OC(C)C(O)C(OC)C1OC` (stereo not drawn) [Compound 16, 20-DH-20-O-[m-(N,N-Dimethylamino)phenyl]tylosin]: the MIC in [1] (setting [17]) was 1 µg/mL (≈ 0.964 µM); in the assay with Streptococcus bovis 80, 50 µg/mL (≈ 48.2 µM); in the assay with Staphylococcus aureus (setting [18]), 1.56 µg/mL (≈ 1.5 µM); in the assay with Mycoplasma synoviae, 6.25 µg/mL (≈ 6.03 µM); in assay [2], over 50 µg/mL; with Mycoplasma hyorhinis (Mycoplasma) it was 50 µg/mL (≈ 48.2 µM). The MIC in the assay with Mycoplasma hyopneumoniae is over 25 µg/mL; in the assay with Streptococcus Group 9960, over 128 µg/mL; in assay [3], 8 µg/mL (≈ 7.71 µM); in [4] (setting [15]) it was 1 µg/mL (≈ 0.964 µM); in assay [5], over 50 µg/mL; in [6], 1 µg/mL (≈ 0.964 µM). The MIC in assay [7] (setting [19]) is over 128 µg/mL; in the assay with Mycoplasma gallisepticum, 1.56 µg/mL (≈ 1.5 µM); in [8] (Staphylococcus aureus, V41), 1 µg/mL (≈ 0.964 µM); in assay [9] (Haemophilus influenzae), 128 µg/mL (≈ 123 µM); in [10] (setting [16]), 2 µg/mL (≈ 1.93 µM); in assay [11] (Staphylococcus aureus, X1.1) it was 1 µg/mL (≈ 0.964 µM). The MIC in assay [12] was 64 µg/mL (≈ 61.7 µM); in assay [13] it was 1 µg/mL (≈ 0.964 µM); in assay [14] it was over 50 µg/mL.
